Measurements as given in patent US7074789B2, “Kinase inhibitors” (Amgen Inc., priority 1999, dated 2006).
pIC50: −log10 of the molar value. Read-outs that look alike come from different tables or passages of the source.

Columns and labels:
Format in all cases: biochemical
[1] = molecular target: T1, EGFR (Homo sapiens, UniProt P00533); experiment: Kinase inhibition assay (33P transfer), EGFR; conditions: Table 2, kinase inhibition class; read-out: EGFR-1
T1 construct: Kinases are expressed as either kinase domains or full length constructs; made in house
Summary of the method: (§1)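 Steps: coat wells with poly(Glu,Tyr) 4:1 or poly(Arg,Ser) 3:1; add purified kinase, [33P]ATP and inhibitor; incubate; wash with 0.5% phosphoric acid; add liquid scintillant; count. IC50 corresponds to half-maximal reduction of bound 33P.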

[2] = molecular target: T2, PDGFRB (Homo sapiens, UniProt P09619); experiment: Kinase inhibition assay (33P transfer), PDGFRB; conditions: read-out: PDGFRB-1
T2 construct: Kinases are expressed as either kinase domains or full length constructs; made in house

[3] = molecular target: T3, Lck (Homo sapiens, UniProt P06239); experiment: Kinase inhibition assay (33P transfer), Lck; conditions: read-out: Lck-1
T3 construct: Kinases are expressed as either kinase domains or full length constructs; made in house
T3 sequence (P06239 whole entry, species assumed, the tested form may be a part): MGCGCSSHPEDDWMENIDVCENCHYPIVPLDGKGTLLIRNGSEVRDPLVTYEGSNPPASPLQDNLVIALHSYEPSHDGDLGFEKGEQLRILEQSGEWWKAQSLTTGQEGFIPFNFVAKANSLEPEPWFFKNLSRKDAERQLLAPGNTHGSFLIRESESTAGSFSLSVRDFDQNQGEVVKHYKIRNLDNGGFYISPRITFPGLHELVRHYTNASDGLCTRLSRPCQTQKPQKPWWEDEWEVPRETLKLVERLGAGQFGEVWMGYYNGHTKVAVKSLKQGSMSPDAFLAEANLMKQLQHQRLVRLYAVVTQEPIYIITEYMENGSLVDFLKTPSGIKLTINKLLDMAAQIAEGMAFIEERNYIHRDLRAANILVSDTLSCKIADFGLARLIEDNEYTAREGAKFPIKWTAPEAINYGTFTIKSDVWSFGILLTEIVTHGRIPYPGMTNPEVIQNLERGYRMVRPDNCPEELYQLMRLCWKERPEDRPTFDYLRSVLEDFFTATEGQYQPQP
Summary of the method: (§2)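 Kinase domain or full-length constructs, GST- or polyHis-tagged, expressed in E. coli or baculovirus-High Five cells, sometimes with regulatory polypeptides. Activity measured as 33PO4 transfer from ATP to plate-bound poly(Glu,Tyr) 4:1 or poly(Arg,Ser) 3:1; after incubation, plates washed with 0.5% phosphoric acid and counted by liquid scintillation.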

[4] = molecular target: T4, Fyn (Homo sapiens, UniProt P06241); experiment: Kinase inhibition assay (33P transfer), Fyn; conditions: read-out: Fyn-1
T4 construct: Kinases are expressed as either kinase domains or full length constructs; made in house
Summary of the method: as §1

[5] = molecular target: T5, Itk (Homo sapiens, UniProt Q08881); experiment: Kinase inhibition assay (33P transfer), Itk; conditions: read-out: Itk-1
T5 construct: Kinases are expressed as either kinase domains or full length constructs; made in house
T5 sequence (Q08881 1-620): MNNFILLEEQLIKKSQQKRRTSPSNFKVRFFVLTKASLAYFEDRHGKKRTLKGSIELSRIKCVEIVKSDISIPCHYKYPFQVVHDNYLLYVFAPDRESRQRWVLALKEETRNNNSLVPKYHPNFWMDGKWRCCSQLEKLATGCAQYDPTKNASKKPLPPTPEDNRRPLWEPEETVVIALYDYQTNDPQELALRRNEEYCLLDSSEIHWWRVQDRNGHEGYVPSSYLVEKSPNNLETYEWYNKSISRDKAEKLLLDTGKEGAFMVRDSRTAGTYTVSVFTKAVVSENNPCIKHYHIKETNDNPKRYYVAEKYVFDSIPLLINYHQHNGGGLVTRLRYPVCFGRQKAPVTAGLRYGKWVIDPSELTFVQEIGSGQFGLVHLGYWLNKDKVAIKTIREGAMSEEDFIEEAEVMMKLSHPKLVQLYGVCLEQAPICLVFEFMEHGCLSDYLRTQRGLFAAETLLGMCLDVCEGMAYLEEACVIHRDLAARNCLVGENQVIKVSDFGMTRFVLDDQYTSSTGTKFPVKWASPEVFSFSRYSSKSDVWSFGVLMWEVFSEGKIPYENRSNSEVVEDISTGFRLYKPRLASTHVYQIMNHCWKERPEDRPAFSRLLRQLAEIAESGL
Summary of the method: as §1

[6] = molecular target: T6, Hck-1 (Homo sapiens, UniProt P08631); experiment: Kinase inhibition assay (33P transfer), Hck; conditions: Table 6, Hck-1 kinase inhibition class
T6 construct: Kinases are expressed as either kinase domains or full length constructs; made in house
T6 sequence (P08631 whole entry, the tested form may be a part): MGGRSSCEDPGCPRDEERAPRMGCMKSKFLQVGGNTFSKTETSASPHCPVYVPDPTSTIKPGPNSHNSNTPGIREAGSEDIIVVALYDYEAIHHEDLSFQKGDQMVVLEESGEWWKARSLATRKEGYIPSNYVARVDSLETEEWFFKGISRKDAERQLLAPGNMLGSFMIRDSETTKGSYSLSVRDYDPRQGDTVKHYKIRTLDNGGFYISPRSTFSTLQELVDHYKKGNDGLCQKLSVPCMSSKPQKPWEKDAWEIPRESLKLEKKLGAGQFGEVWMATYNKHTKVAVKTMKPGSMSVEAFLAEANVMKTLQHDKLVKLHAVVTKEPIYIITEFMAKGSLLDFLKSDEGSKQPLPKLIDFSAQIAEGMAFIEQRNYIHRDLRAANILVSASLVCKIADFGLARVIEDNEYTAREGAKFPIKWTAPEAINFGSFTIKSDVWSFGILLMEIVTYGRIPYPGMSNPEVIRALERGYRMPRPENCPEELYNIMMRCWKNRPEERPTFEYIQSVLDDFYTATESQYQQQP

[7] = molecular target: T7, ErbB4 (Homo sapiens, UniProt Q15303); experiment: Kinase inhibition assay (33P transfer), ErbB4; conditions: read-out: ErbB4-1
T7 construct: Kinases are expressed as either kinase domains or full length constructs; made in house

[8] = molecular target: T2, PDGFRB; experiment: Kinase inhibition assay (33P transfer), PDGFRB; conditions: read-out: PDGFRB-1; remark: listed apart in the source
[9] = molecular target: T8, c-Met (Homo sapiens, UniProt P08581); experiment: Kinase inhibition assay (33P transfer), c-Met; conditions: Table 2, kinase inhibition class; read-out: Met-1
T8 construct: Kinases are expressed as either kinase domains or full length constructs; made in house
Summary of the method: as §1

[10] = molecular target: T9, Kdr (Homo sapiens, UniProt P35968); experiment: Kinase inhibition assay (33P transfer), Kdr; conditions: read-out: KDR-1
T9 construct: Kinases are expressed as either kinase domains or full length constructs; made in house
Summary of the method: as §2

[11] = molecular target: T10, IGFR-1 (Homo sapiens, UniProt P08069); experiment: Kinase inhibition assay (33P transfer), IGFR-1; conditions: Table 2, kinase inhibition class
T10 construct: Kinases are expressed as either kinase domains or full length constructs; made in house
T10 sequence (P08069 31-1367): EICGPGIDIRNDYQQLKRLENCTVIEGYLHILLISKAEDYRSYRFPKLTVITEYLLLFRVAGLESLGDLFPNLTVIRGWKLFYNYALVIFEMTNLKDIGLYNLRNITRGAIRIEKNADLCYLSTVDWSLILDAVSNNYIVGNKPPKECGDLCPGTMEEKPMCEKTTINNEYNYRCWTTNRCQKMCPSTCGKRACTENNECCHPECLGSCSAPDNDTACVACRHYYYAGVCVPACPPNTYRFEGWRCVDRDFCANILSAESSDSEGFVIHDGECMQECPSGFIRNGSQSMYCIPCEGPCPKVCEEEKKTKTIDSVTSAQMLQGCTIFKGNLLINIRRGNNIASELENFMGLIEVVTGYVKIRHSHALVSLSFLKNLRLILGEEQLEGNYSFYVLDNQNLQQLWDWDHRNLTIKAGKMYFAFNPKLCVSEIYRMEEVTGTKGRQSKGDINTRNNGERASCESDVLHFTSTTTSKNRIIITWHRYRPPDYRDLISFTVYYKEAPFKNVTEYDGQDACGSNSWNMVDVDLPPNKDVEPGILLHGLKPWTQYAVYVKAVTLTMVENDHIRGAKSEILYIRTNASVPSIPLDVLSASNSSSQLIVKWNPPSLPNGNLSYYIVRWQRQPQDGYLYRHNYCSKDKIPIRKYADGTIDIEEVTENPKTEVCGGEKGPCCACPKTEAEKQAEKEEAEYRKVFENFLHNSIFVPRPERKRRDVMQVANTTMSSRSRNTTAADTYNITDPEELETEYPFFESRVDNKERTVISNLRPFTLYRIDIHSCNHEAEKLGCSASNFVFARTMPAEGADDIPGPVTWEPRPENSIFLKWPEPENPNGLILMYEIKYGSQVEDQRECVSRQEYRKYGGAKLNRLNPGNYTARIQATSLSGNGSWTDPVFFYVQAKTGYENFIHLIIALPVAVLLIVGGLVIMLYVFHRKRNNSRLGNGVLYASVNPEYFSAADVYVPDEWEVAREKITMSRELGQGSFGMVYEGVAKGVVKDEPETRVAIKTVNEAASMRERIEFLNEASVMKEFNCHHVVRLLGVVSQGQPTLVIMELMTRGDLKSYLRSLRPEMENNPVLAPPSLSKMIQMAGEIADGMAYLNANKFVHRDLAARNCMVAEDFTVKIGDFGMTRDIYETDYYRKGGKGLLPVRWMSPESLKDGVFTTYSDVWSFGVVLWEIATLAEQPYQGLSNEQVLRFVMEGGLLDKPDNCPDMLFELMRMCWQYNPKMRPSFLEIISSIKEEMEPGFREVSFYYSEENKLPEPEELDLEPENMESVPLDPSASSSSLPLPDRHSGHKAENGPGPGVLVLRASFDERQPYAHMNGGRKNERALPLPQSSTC

[12] = molecular target: T11, Zap-70 (Homo sapiens, UniProt P43403); experiment: Kinase inhibition assay (33P transfer), Zap-70; conditions: read-out: Zap-1
T11 construct: Kinases are expressed as either kinase domains or full length constructs; made in house
T11 sequence (P43403 1-619): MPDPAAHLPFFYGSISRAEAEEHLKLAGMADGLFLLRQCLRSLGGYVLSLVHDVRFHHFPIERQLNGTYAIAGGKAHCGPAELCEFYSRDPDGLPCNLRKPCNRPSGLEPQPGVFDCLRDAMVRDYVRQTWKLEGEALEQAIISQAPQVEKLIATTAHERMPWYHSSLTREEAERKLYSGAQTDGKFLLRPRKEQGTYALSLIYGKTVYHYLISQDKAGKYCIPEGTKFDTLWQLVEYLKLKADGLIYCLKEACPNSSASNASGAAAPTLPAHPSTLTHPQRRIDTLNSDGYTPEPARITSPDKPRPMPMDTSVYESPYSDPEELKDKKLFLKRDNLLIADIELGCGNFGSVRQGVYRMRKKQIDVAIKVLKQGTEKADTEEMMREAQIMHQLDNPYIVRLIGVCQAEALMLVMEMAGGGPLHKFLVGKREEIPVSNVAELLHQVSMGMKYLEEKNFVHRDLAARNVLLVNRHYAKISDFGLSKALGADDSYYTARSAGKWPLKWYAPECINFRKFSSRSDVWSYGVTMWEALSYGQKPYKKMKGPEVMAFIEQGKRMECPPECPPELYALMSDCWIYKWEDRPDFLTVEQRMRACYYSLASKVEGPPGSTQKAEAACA
Summary of the method: as §2

[13] = molecular target: T12, Src (Homo sapiens, UniProt P12931); experiment: Kinase inhibition assay (33P transfer), Src; conditions: Table 6, Src-1 kinase inhibition class
T12 construct: Kinases are expressed as either kinase domains or full length constructs; made in house
Summary of the method: as §1

[14] = molecular target: T10, IGFR-1; experiment: Kinase inhibition assay, IGFR-1 (Table 2); conditions: Table 2, kinase inhibition class
[15] = molecular target: T13, Tek (Homo sapiens, UniProt Q02763); experiment: Kinase inhibition assay (33P transfer), Tek; conditions: read-out: Tek-1
T13 construct: Kinases are expressed as either kinase domains or full length constructs; made in house
T13 sequence (Q02763 23-1124, species assumed): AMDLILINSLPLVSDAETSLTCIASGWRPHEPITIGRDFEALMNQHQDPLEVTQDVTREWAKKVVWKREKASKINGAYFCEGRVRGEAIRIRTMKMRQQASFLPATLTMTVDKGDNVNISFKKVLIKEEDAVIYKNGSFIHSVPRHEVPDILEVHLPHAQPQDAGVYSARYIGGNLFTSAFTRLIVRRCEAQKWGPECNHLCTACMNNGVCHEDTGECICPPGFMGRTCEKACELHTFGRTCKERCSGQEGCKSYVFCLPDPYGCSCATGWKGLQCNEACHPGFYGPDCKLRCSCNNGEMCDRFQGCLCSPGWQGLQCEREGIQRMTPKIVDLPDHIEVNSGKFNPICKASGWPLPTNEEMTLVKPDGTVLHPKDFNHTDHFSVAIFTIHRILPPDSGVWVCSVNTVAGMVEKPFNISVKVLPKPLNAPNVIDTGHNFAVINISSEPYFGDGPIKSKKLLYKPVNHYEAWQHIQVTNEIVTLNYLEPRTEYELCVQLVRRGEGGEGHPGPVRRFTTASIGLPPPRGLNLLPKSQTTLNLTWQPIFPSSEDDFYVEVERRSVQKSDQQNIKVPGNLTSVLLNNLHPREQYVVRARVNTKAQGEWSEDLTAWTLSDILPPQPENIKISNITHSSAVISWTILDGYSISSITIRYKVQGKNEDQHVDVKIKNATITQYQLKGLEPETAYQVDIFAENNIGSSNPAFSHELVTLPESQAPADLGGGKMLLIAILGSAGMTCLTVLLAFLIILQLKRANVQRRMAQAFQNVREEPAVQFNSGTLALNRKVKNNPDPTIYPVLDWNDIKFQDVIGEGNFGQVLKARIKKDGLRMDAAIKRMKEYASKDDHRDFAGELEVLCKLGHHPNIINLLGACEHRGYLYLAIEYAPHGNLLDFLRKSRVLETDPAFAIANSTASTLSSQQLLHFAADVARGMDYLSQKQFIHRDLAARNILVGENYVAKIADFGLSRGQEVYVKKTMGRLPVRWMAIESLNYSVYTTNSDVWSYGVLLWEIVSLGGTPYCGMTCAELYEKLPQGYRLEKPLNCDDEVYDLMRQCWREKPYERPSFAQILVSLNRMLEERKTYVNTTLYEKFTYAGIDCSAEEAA
Summary of the method: as §1

[16] = molecular target: T14, ErbB2 (Homo sapiens, UniProt P04626); experiment: Kinase inhibition assay (33P transfer), ErbB2; conditions: read-out: ErbB2-2
T14 construct: Kinases are expressed as either kinase domains or full length constructs; made in house
Summary of the method: as §1

[17] = molecular target: T15, Flt-1 (Homo sapiens, UniProt P17948); experiment: Kinase inhibition assay (33P transfer), Flt-1
T15 construct: Kinases are expressed as either kinase domains or full length constructs; made in house
T15 sequence (P17948 27-1338, species assumed): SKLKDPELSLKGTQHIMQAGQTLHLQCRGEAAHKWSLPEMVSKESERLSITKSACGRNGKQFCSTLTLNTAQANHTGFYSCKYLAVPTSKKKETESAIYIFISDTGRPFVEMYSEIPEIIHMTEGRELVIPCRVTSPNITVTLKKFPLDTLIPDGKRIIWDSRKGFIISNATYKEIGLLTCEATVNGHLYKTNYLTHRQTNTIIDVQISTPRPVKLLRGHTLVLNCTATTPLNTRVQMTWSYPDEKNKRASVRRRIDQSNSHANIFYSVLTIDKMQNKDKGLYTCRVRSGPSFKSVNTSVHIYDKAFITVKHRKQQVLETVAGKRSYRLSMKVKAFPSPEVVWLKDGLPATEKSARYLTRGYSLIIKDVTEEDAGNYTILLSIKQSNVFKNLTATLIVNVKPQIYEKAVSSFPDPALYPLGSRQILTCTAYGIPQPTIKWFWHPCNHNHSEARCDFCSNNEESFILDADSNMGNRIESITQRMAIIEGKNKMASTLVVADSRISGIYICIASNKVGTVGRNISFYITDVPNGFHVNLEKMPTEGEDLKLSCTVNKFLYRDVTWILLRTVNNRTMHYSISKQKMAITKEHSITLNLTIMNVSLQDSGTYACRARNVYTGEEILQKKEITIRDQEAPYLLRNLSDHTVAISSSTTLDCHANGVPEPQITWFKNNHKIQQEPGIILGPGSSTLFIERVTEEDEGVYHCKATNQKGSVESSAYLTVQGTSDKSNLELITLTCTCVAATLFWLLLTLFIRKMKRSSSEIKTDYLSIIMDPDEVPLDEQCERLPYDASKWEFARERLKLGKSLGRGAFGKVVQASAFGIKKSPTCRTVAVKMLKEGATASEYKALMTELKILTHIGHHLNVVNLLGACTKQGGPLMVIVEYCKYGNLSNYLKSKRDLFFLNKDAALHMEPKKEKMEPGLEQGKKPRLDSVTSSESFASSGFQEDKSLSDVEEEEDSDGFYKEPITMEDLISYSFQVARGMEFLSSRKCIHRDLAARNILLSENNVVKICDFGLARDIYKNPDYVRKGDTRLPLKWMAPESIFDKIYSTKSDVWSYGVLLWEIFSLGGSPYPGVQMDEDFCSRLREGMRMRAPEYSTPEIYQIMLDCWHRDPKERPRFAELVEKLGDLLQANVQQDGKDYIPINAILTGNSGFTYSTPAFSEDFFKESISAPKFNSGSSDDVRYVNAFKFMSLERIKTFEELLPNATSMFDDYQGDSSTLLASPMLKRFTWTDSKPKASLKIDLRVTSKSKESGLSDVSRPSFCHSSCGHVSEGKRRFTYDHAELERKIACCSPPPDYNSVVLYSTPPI
Summary of the method: as §1

[18] = molecular target: T16, Lyn (Homo sapiens, UniProt P07948); experiment: Kinase inhibition assay (33P transfer), Lyn; conditions: Table 6, Lyn-1 kinase inhibition class
T16 construct: Kinases are expressed as either kinase domains or full length constructs; made in house
Summary of the method: as §1

[19] = molecular target: T17, AKT (Homo sapiens, UniProt Q9Y243); experiment: Kinase inhibition assay (33P transfer), AKT; conditions: Table 2, kinase inhibition class; read-out: AKT3-1
T17 construct: Kinases are expressed as either kinase domains or full length constructs; made in house
Summary of the method: as §2

[20] = molecular target: T18, FGFR1 (Homo sapiens, UniProt P11362); experiment: Kinase inhibition assay (33P transfer), FGFR1; conditions: read-out: FGFR1-1
T18 construct: Kinases are expressed as either kinase domains or full length constructs; made in house

| Compound | pIC50 [1] | pIC50 [2] | pIC50 ([3]; Table 3) | pIC50 [4] | pIC50 ([5]; Table 3) | pIC50 [6] | pIC50 [7] | pIC50 [9] | pIC50 ([10]; Table 3) | pIC50 ([12]; Table 3) | pIC50 [13] | pIC50 [15] | pIC50 [17] | pIC50 [18] | pIC50 [19] | pIC50 [20] | also measured |
| --- | --- | --- | --- | --- | --- | --- | --- | --- | --- | --- | --- | --- | --- | --- | --- | --- | --- |
| COc1cc(Nc2ncnc(-n3c(NCc4ccccn4)nc4ccccc43)n2)cc(OC)c1OC [Compound 414] | < 5.03 | > 6.08 | < 5.03 | 5.31 to 6.08 | < 5.03 | < 5.03 | < 5.03 | < 5.03 | > 6.08 | < 5.03 | < 5.03 | < 5.03 | > 6.08 | < 5.03 | < 5.03 | > 6.08 | pIC50 [3]: 5.31 to 6.08; pIC50 [5]: < 5.03; pIC50 [8]: > 6.08; pIC50 [10]: > 6.08; pIC50 [11]: < 5.03; pIC50 [12]: < 5.03; pIC50 [14]: 5.03 to 5.14; pIC50 [16]: < 5.03 |
| COc1cc(Nc2ncnc(NC3CC3c3ccccc3)n2)cc(OC)c1OC (centres unmarked) [Compound 428] | > 5.99 | 5.21 to 5.99 | > 5.99 | 5.21 to 5.99 | < 4.94 | < 4.94 | 5.21 to 5.99 | < 4.94 | 5.05 to 5.21 | < 4.94 | 5.21 to 5.99 | < 4.94 | < 4.94 | > 5.99 | < 4.94 | 5.05 to 5.21 | pIC50 [11]: 5.21 to 5.99; pIC50 [16]: 5.21 to 5.99 |
| COc1cc(Nc2ncnc(-n3c(Nc4ccc5[nH]ncc5c4)nc4ccccc43)n2)cc(OC)c1OC [Compound 404] | 5.05 to 5.16 | > 6.11 | 5.33 to 6.11 | 5.33 to 6.11 | 5.33 to 6.11 | 5.05 to 5.16 | < 5.05 | < 5.05 | > 6.11 | < 5.05 | 5.16 to 5.33 | < 5.05 | > 6.11 | 5.33 to 6.11 | 5.05 to 5.16 | > 6.11 | – |
| COc1cccc(Nc2nc3ccccc3n2-c2ncnc(Nc3cc(OC)c(OC)c(OC)c3)n2)c1 [Compound 415] | < 5.05 | > 6.10 | 5.15 to 5.32 | < 5.05 | < 5.05 | < 5.05 | < 5.05 | < 5.05 | > 6.10 | < 5.05 | < 5.05 | < 5.05 | 5.32 to 6.10 | < 5.05 | < 5.05 | > 6.10 | – |
| COc1cc(Nc2ncnc(-n3c(Nc4cc(C)n[nH]4)nc4ccccc43)n2)cc(OC)c1OC [Compound 401] | 5.30 to 6.07 | > 6.07 | 5.30 to 6.07 | 5.30 to 6.07 | > 6.07 | 5.30 to 6.07 | 5.30 to 6.07 | 5.30 to 6.07 | > 6.07 | 5.30 to 6.07 | 5.30 to 6.07 | 5.30 to 6.07 | > 6.07 | 5.30 to 6.07 | < 5.02 | > 6.07 | – |
| COc1cc(Nc2ncnc(-n3cc(CCO)c4ccccc43)n2)cc(OC)c1OC [Compound 463] | < 4.97 | > 6.02 | < 4.97 | > 6.02 | < 4.97 | < 4.97 | < 4.97 | < 4.97 | > 6.02 | < 4.97 | 5.24 to 6.02 | < 4.97 | > 6.02 | 5.24 to 6.02 | < 4.97 | > 6.02 | – |
| COc1cc(Nc2ncnc(-n3ccc4cc(O)ccc43)n2)cc(OC)c1OC [Compound 202] | < 4.94 | > 5.99 | > 5.99 | > 5.99 | > 5.99 | < 4.94 | 5.21 to 5.99 | 5.21 to 5.99 | > 5.99 | < 4.94 | > 5.99 | 5.05 to 5.21 | > 5.99 | > 5.99 | 4.94 to 5.05 | > 5.99 | – |
